The values below come from US6596712B2, “Treatment of carcinomas using squalamine in combination with other anti-cancer agents or modalities” (Genaera Corporation, priority 1996, dated 2003).

One assay deals with T1, human NHE3 (Homo sapiens, UniProt P48764).
T1 construct: expressed in transfected cells; host or cells: PS 120 NHE-deficient fibroblasts
Kind of assay: NHE activity in PS 120 fibroblasts transfected with human NHE3 (BCECF pH change rate). It is filed as cell-based. Here is the method:
The following describes the test used to determine that squalamine inhibits NHE3, but not NHE1 or NHE2. NHE deficient fibroblast cells (PS 120) transfected with an individual human NHE gene were loaded with a pH sensitive dye 2′7′-bis(2-carboxyethyl)-5,6-carboxyfluorescein (BCECF). NHE activity was measured by spectrofluorometric methods using this dye and by amiloride sensitive isotopic ^22Na^+cellular uptake. The cells were acidified by exposure to ammonium chloride in the absence of sodium to eliminate sodium and deactivate the proton pumps. The ammonium chloride was washed out by exposing the cells to tetramethyl ammonium chloride in bicarbonate free medium. […] Sodium then was added back at various concentrations (see the abscissa of FIGS. 5a and 5b) to drive the antiporters (human NHE3 in FIG. 5a and human NHE1 in FIG. 5b). The antiporters were driven at different rates, as evidenced by the cellular pH change rate, depending on the amount of sodium added.
As noted above, it has been concluded that squalamine inhibits NHE3 and not NHE1. […] Such inhibitors affect only the absolute number of protons that can be secreted by the cell (i.e., “Vmax”), if one looks at the kinetic characteristics of the inhibition. […] Note the following Table 1, which correlates to data collected in the test of FIG. 5a.

The target in another assay is T2, rabbit NHE3 (Oryctolagus cuniculus, UniProt P26432).
T2 construct: expressed in transfected cells
Kind of assay: NHE activity, rabbit NHE3. It counts as cell-based. The note with it: for decrease of Vmax of rabbit NHE3: 1 hour pretreatment.

The next assay deals with T3, rabbit NHE1 (Oryctolagus cuniculus, UniProt P23791).
T3 construct: expressed in transfected cells
The assay is described as follows: NHE activity, rabbit NHE1. It is filed as cell-based. The following applies: similar tests.

The test system of assay [1] is brush border membrane vesicle (BBMV) NHE. Kind of assay: Brush border membrane vesicle (BBMV) NHE inhibition. It is filed as biochemical. The following applies: tissue pretreated; 30 minutes exposure.
Assay [2] relates to H460 human lung adenocarcinoma line. The assay is described as follows: Nude mouse xenograft model of lung cancer with cisplatin, H460. It is filed as in vivo. The note with it: started on day 4 or 5, daily i.p. An excerpt:
(§1) Studies in a nude mouse xenograft model of lung cancer have been carried out using several human lung cancer lines which differ in their growth rate. […] The experimental lung cancer model design involves subcutaneous injection of 5×10^6 tumor cells followed by a single injection of the chemotherapeutic drug on day 3 or 4. […] Groups of mice receiving squalamine alone started receiving the aminosterol on the same day as aminosterol treatment in the combination chemotherapy groups. Tumor volumes were then determined at termination of the experiment and compared.

In assay [3] the test system is Calu-6 human lung adenocarcinoma line. Kind of assay: Nude mouse xenograft model of lung cancer with cisplatin, Calu-6. The following applies: started on day 4 or 5, daily i.p. It counts as in vivo.
From the text: as §1

The subject of the next assay is LNCaP cells. Kind of assay: LNCaP cell growth in vitro ([3H]-thymidine incorporation). It counts as cell-based, human. Here is the method:
The anti-proliferative effect of squalamine was evaluated in tissue culture by both crystal violet staining and [^3H]-thymidine incorporation, on the LNCaP/C4-2 human prostate cancer progression model. Developed by applicants' laboratory, this lineage-derived cell line recapitulates the progression of human neoplastic prostate disease from an androgen-dependent and minimally metastatic condition (LNCaP cells) to an androgen-independent (defined as being able to proliferate in castrate hosts) and highly aggressive state (C4-2 subline).
In vitro experiments were also conducted with the LNCAP cell line in which cell proliferation as judged by [3H]-thymidine uptake was determined. LNCaP cells were maintained as previously described (cf. J. T. Hsieh et al., Cancer Research 53, 2852-2857 (1993)). Cells were exposed to 20 ng/mL vascular endothelial growth factor (VEGF), 20 μg/mL squalamine or a combination of VEGF and squalamine. […] As a consequence, the mechanism underlying the effectiveness of squalamine treatment of the LNCaP tumor in vivo may under certain conditions also involve direct inhibition of tumor cell growth and/or induction of tumor cell death.
For orientation: Dividing cells build labelled thymidine or BrdU into new DNA.

A further assay relates to H460. Kind of assay: H460 lung tumor xenograft with carboplatin. It counts as in vivo, nude BALBc mice. The note with it: carboplatin 60 mg/kg i.p. single dose, squalamine 20 mg/kg once daily for 5 days. Here is the method: About 5×10^6 cells from each of two human lung tumor lines, H460 (a rapidly proliferating large cell carcinoma cell line, ATCC HTB-177) and Calu-6 (an anaplastic carcinoma, ATCC HTB-56), were inoculated subcutaneously in the right foreleg of nude BALBc mice. Once tumors were visible (3-5 days) with a mean volume of approximately 50-80 mm^3, mice were treated intraperitoneally with 60 mg/kg carboplatin (single dose) or 20 mg/kg/squalamine (once daily for 5 days) or a combination of carboplatin and squalamine. There were 8 mice per group. Tumor growth inhibition was scored by quantifying the size of tumors once control tumors reached a size of 1.0 gram and determining the ratio of mean treated tumor size to mean control tumor size (T/C). Tumor growth inhibition was then scored as 100% x [1-(T/C)]. A separate antitumor activity variable, tumor growth delay, was scored for the tumors by determining the length of time it required for the mean tumor size in a treatment group to reach a size of 500 mm^3 (B. A. Teicher et al., Anticancer Research 18, 2567-2574 (1998)). The tumor growth inhibition seen with carboplatin plus squalamine was greater than that seen with carboplatin or squalamine alone. The relative inactivity of squalamine as a single agent by this assay endpoint supports the idea that squalamine is synergistic with carboplatin in the inhibition of these two human lung tumor xenografts. Similarly, it was determined that squalamine enhanced the tumor growth delay caused by carboplatin by an enhancement factor of >2.3 (Table 7).

Assay [4] relates to Syngeneic mammary carcinoma MCA-4 tumor cells. The assay is described as follows: MCA-4 mammary carcinoma tumor growth delay with radiation. It counts as in vivo, C3Hf/Kam male mice. On the procedure:
Syngeneic mammary carcinoma MCA-4 tumor cells (5×10^5) were injected intramuscularly into the right legs of C3Hf/Kam male mice (4 months of age). When the tumors reached 6 mm in diameter, the mice were randomly assigned to receive: (a) no treatment, (b) squalamine alone (20 mg/kg/day b.i.d. for 11-14 days), (c) 15 Gy of gamma irradiation, or (d) squalamine plus 15 Gy of gamma rays. Tumor growth was followed until tumors reached at least 12 mm in diameter. The effect of squalamine on tumor radioresponse was determined by absolute and normalized tumor growth delays (AGD and NGD). AGD is defined as the time in days for tumors treated with radiation (or squalamine) to grow from 8 to 12 mm minus the time in days for untreated tumors to grow from 8-12 mm. NGD is defined as the time in days for tumors treated with both squalamine and radiation to grow from 8 to 12 mm minus the time in days for tumors treated with squalamine only to grow from 8 to 12 mm. An enhancement factor (EF) was determined as the ratio of NGD to AGD. The EF for squalamine with 15 Gy gamma rays calculated from the observed times for tumor growth (Table 8) is >1.5.

T2 sequence (P26432 30-832): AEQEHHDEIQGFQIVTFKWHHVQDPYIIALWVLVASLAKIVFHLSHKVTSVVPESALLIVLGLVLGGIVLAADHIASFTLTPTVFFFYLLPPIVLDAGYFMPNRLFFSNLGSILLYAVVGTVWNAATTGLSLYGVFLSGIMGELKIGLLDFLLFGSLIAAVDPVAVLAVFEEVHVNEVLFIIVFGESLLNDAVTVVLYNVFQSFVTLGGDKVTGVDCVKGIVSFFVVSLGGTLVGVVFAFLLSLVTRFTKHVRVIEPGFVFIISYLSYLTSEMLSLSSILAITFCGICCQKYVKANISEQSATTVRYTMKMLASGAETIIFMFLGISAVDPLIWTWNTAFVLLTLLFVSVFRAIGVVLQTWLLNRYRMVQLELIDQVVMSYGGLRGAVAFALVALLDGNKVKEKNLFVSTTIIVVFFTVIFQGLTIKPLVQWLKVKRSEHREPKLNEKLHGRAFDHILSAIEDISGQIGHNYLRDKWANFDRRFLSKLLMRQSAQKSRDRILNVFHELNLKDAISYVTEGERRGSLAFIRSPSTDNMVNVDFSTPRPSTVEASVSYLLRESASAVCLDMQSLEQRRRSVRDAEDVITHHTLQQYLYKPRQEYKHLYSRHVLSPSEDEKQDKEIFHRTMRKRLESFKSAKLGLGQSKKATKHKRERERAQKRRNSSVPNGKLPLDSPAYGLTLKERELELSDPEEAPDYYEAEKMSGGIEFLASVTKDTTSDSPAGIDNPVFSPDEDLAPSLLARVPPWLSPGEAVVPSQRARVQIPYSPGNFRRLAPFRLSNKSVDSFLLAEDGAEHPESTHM
T1 sequence (P48764 26-834): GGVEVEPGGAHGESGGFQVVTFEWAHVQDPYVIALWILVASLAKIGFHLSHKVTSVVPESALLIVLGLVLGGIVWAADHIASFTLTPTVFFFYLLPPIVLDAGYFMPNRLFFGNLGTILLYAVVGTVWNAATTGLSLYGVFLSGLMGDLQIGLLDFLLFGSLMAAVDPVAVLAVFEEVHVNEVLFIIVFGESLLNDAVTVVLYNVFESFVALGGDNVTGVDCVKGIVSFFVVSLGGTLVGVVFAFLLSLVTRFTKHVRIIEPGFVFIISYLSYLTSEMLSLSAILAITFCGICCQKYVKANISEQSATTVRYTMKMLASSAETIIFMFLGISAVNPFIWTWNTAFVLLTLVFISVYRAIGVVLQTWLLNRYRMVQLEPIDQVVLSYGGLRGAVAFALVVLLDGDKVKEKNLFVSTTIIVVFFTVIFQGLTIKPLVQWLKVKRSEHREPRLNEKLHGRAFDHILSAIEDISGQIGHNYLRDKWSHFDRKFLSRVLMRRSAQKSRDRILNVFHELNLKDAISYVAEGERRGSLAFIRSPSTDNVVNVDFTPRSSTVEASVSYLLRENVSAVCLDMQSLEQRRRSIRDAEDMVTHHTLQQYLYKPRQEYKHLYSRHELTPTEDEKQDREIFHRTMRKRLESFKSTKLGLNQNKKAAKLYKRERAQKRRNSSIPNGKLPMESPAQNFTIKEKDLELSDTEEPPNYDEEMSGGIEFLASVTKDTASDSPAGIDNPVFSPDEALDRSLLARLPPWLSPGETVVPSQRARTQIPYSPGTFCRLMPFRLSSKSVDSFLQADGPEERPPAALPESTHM
T3 sequence (P23791 whole entry): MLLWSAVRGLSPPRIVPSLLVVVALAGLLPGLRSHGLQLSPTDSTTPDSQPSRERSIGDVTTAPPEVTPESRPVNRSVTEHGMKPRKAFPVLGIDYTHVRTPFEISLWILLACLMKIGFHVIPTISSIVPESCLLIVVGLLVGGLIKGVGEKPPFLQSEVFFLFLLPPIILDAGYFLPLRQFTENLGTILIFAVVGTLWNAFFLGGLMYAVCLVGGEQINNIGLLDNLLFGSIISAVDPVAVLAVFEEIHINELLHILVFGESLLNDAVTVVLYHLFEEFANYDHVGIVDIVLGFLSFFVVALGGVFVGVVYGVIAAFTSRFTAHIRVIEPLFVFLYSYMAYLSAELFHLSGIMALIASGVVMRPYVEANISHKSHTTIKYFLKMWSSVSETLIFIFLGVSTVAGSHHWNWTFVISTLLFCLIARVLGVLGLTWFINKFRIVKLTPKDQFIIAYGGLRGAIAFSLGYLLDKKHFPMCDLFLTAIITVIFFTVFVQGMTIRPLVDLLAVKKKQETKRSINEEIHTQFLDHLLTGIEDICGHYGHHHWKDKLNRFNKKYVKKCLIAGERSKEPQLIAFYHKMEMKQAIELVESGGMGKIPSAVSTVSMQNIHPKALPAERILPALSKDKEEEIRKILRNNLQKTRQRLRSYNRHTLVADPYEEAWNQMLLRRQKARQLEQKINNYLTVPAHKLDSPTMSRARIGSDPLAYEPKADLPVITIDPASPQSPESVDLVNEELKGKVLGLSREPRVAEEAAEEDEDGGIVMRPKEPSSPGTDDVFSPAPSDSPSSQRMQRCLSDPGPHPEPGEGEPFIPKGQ

`CC(C)[C@@H](CC[C@@H](C)[C@H]1CC[C@H]2[C@@H]3[C@H](O)C[C@H]4C[C@@H](NCCCNCCCCN)CC[C@]4(C)[C@H]3CC[C@]12C)OS(=O)(=O)O` [Squalamine, squalamine]: the “effect on human NHE3 antiporter (pH change rate)” value on human NHE3 (7 μg/ml squalamine, acid loaded cells) is given as “inhibits human NHE3”. For the same compound, the “time before NHE3 inhibition effect was observed” value on human NHE3 (transfected cells) was “at least 30 minutes”. The “time dependence of effect on Vmax” value on rabbit NHE3 was “maximum effect occurring at one hour exposure”. Further, the results for the “decrease of Vmax of rabbit NHE3” value at rabbit NHE3 (1 μg squalamine/ml), at rabbit NHE3 (5 μg squalamine/ml) and at rabbit NHE3 (7 μg squalamine/ml) were 13%, 47% and 57%, respectively. Besides, at rabbit NHE3 (after removing the cells from the medium), the “reversibility of effect on Vmax” value is “fully reversible within three hours”. The “effect on rabbit NHE3” value at rabbit NHE3 (similar tests) is “inhibited”. In addition, the “effect on rabbit NHE1” value at rabbit NHE1 is on record as “not affected”. In addition, in assay [1], the “inhibition of BBMV NHE” value is 51%. Moreover, the “tumor growth, monotherapy” value in [2] and in [3] was “minimal effects on tumor growth” in each case. For the same compound, in the assay on LNCaP cells (20 ng/mL VEGF and/or 20 μg/mL squalamine, 24 hours, media containing serum), the “Percent of Control [3H]-Thymidine Uptake” value is 75%. Also, the “effect on cell growth alone” value in the assay with LNCaP cells (media containing serum, 20 ng/mL VEGF or 20 μg/mL squalamine) is given as “minimal effects on cell growth”. Besides, the “growth of LNCaP cells, squalamine by itself” value in the assay on LNCaP cells (no exogenous VEGF) is “nominal effect”. In the assay on LNCaP cells (with addition of exogenous VEGF), the LNCaP proliferation result is listed as “inhibited”. In addition, in the assay on H460, the “Tumor Growth Inhibition (T/C)” value is given as 6%. Further, the AGD in assay [4] (absolute tumor growth delay) was found to be 0 days. In addition, the “Time to Grow From 8 to 12 mm” value in [4] (squalamine 20 mg/kg/day b.i.d. for 11-14 days, 15 Gy gamma irradiation) is listed as 6 days.
